Among the data in patent US10434174B2, “Combination therapies using platinum agents and agents that target tumor-associated stroma or tumor cells” (BIOMED VALLEY DISCOVERIES, INC., priority 2014, dated 2019) are tumor growth values, retold here.

Square brackets hold non-standard residues; d marks the D form. Peptide text beside a SMILES is read from it. * marks the point of attachment. Dolaproine = CO[C@@H]([C@@H]1CCCN1)[C@@H](C)C(=O)O; Dil = CC[C@H](C)[C@H](NC)[C@@H](CC(=O)O)OC; X1 = C[C@@H](N*)[C@@H](O)c1ccccc1; NMeV = CN[C@H](C(=O)O)C(C)C

The assay concerns OVCAR3 ovarian cancer model. The assay is described as follows: M825 and M825-MMAE in OVCAR3 ovarian cancer model. It counts as in vivo, mouse. The conditions noted are these: 0.2 mg/kg, equivalent to maximum MMAE in the 10 mg/kg ADC group. On the procedure:
Treatment initiated when tumor volume reached approximately 120 mm^3. M825 was given i.v. at 10 mg/kg and M825-MMAE was given i.v. at 1, 3, or 10 mg/kg, 2 times per week for 3.5 weeks. […] The 10 mg/kg ADC group was redosed on Day 56, 2 times per week.

As to `CC[C@H](C)[C@@H]([C@@H](CC(=O)N1CCC[C@H]1[C@H](OC)[C@@H](C)C(=O)N[C@H](C)[C@@H](O)c1ccccc1)OC)N(C)C(=O)[C@@H](NC(=O)[C@@H](NC)C(C)C)C(C)C` [MMAE] (H-[NMeV]V[Dil][Dolaproine]-X1), the tumor growth entry is listed as “No effect”.
